Laboratory results published in patent US20090292025A1, “Novel crystalline forms of armodafinil and preparation thereof” (Teva Pharmaceutical Industries Ltd., priority 2006, published 2009).

What was measured:
[1] = Grinding with mortar and pestle, XRD of the ground sample; type: physicochemical; conditions: 100 mg ground with mortar and pestle for a few minutes
Method: Another method for preparing armodafinil Form I comprises grinding armodafinil Form IV. Preferably, the grinding is carried out over a period of about 1 minute to about 5 minutes, more preferably, about 1 min. Depending on the amount of armodafinil Form IV, different grinding methods may be used. For example, 200 mg of armodafinil Form IV is ground with a mortar and pestle for 1 minute.
Armodafinil Form IV (100 mg) was ground with mortar and pestle for a few minutes forming a ground sample.

[2] = Stability of the crystal form under pressure of 2-10 tons (tablet compression); type: physicochemical
Method: Form A is stable by pressure of about 2-10 tons which is used in the compression stage during the tablet preparation.
A further method of preparing armodafinil Form I comprises submitting armodafinil Form IV to a pressure of about 2 tons to about 10 tons to obtain armodafinil Form I. Preferably, the pressure is applied for a period of about 1 minute to about 5 minutes. The time will depend upon the amount of armodafinil Form IV; for example, armodafinil 100 mg of Form IV is pressed with 10 tons for 1 minute.
Armodafinil Form IV (100 mg) was pressed with pressure of 2 tons or 10 tons for 1 min forming a pressed sample.

[3] = Heating at 145° C., XRD of the heated sample; type: physicochemical; conditions: 200 mg heated at 145° C. for 10 min
Method: Armodafinil Form I may also be prepared by drying armodafinil Form IV. Preferably, the process comprises heating armodafinil Form IV to a temperature of about 120° C. to 150° C. for at least about 10 minutes. Preferably, the heating is to a temperature of about 145° C. Preferably, the heating is conducted over a period of about 15 minutes about 30 minutes. For example, armodafinil Form IV 200 mg is heated for about 10 minutes. Form IV may be prepared according to WO 2004/060858.
Armodafinil Form IV (200 mg) was heated at 145° C. for 10 min forming a heated sample.

[4] = Exposure to 100% relative humidity, followed by TGA and XRD; type: physicochemical
Method: Another embodiment of the invention encompasses armodafinil monohydrate. Armodafinil monohydrate may be prepared by a method comprising exposing armodafinil Form 1 to 100% relative humidity at a temperature of about 30° C. to about 60° C. for at least 7 days. Preferably, the heating is to a temperature of about 30° C. to about 40° C. In one example 200 mg of armodafinil Form I is heated at 30° C. in 100% relative humidity for 13 days.
X-Ray powder diffraction data were obtained by using methods known in the art. A SCINTAG powder X-ray diffractometer model X′TRA equipped with a solid-state detector was employed with copper radiation of 1.5418 Å and a round aluminum sample holder with zero background. The scanning parameters included: range: 2-40 degrees two-theta; scan mode: continuous scan; step size: 0.05 deg.; and a rate of 5 deg/min. All peak positions are within ±0.2 degrees two theta.
TGA analysis was performed using a Metler M3 thermo gravimeter. Samples of about 8 mg were analyzed in standard 150 μl alumina crucibles covered by lids with 1 hole. Each sample was scanned at a rate of 10° C./min from 25° C. to 200° C. A blank was subtracted from the sample. The oven was constantly purged with nitrogen gas at a flow rate of 40 ml/min.
Armodafinil Form A (200 mg) was exposed to 100% humidity for 7 days at 30° C. The XRD diffractogram of armodafinil Form I is illustrated in FIG. 3.

[5] = Prisinzano et al., Tetrahedron: Asymmetry (2004); cited from earlier work
[6] = Form A exposed to 100% humidity for 7 days at 30° C.
[7] = Form A, Initial (before exposure)
[8] = Form I exposed to 100% Relative Humidity at 30° C. for 13 days
[9] = Form I exposed to 100% Relative Humidity at 60° C. for 13 days
[10] = Form I, Initial (Table 1, 30° C. study)
[11] = Form I, Initial (Table 2, 60° C. study)

**Q.** What does the source list for `NC(=O)C[S@@+]([O-])C(c1ccccc1)c1ccccc1` [Armodafinil Form IV, 2-[(R)-(diphenylmethyl)sulfinyl]acetamide]?
**A.** Crystal form (by XRD) of ground sample [1]: Form I; Crystal form (by XRD) of pressed sample ([2]; 100 mg pressed with 2 tons or 10 tons for 1 min): Form I; Crystal form (by XRD) of heated sample [3]: Form I

**Q.** For `NC(=O)C[S@@+]([O-])C(c1ccccc1)c1ccccc1` [Armodafinil Form A, 2-[(R)-(diphenylmethyl)sulfinyl]acetamide], which “% Weight loss (by TGA)” value [4, 6] is on record?
**A.** 3.5%

**Q.** What about the “Crystal form (by XRD)” value [4, 6] of the same compound?
**A.** Form I

**Q.** And the “% Weight loss (by TGA)” value [4, 7]?
**A.** 0.3%

**Q.** What about the “Crystal form (by XRD)” value [4, 7] of the same compound?
**A.** Form A

**Q.** What about the Stability by pressure ([2]; pressure of about 2-10 tons, as used in the compression stage of tablet preparation) of the same compound?
**A.** stable

**Q.** With `NC(=O)C[S@@+]([O-])C(c1ccccc1)c1ccccc1` (single isomer, unassigned) [S enantiomer] as the compound, how does the “Elimination from the body compared with the R enantiomer” value [5] read?
**A.** three times faster

**Q.** For `NC(=O)C[S@@+]([O-])C(c1ccccc1)c1ccccc1` [armodafinil Form I, 2-[(R)-(diphenylmethyl)sulfinyl]acetamide], which “% Weight loss (by TGA)” value [4, 8] is on record?
**A.** 5.6%

**Q.** And the “Crystal form (by XRD)” value [4, 8]?
**A.** Form I

**Q.** What about the “% Weight loss (by TGA)” value [4, 9] of the same compound?
**A.** 7.4%

**Q.** And the “Crystal form (by XRD)” value [4, 9]?
**A.** Form I

**Q.** What about the “% Weight loss (by TGA)” value [4, 10] of the same compound?
**A.** 0.1%

**Q.** What about the “Crystal form (by XRD)” value [4, 10] of the same compound?
**A.** Form I

**Q.** And the “% Weight loss (by TGA)” value [4, 11]?
**A.** 0.1%

**Q.** What about the “Crystal form (by XRD)” value [4, 11] of the same compound?
**A.** Form I
